Test results reported in article PMC3543149 (Diabetologia, 2012).

Target: T1, PKC-ι (Homo sapiens, UniProt P41743)
T1 sequence (P41743 2-596): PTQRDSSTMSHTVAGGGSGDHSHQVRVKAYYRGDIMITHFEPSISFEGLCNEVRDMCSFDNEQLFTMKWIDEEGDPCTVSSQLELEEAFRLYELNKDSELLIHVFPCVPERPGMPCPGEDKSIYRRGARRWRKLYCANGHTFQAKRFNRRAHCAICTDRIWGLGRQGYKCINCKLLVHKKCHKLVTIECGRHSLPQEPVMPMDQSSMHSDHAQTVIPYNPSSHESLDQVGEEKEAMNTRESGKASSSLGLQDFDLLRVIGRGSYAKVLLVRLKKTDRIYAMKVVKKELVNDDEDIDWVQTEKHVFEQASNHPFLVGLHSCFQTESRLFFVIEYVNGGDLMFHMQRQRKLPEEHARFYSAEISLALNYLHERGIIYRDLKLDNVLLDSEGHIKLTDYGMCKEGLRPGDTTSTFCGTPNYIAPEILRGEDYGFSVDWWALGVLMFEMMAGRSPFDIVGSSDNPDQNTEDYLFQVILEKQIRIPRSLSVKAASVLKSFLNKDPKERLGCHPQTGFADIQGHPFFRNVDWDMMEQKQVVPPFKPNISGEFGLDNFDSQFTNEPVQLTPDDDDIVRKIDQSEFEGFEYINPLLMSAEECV
Assay: […]-ATP kinase assay of recombinant PKC-ι activated by PIP3, dose response
Format: biochemical

IC50: 10 to 100 nM
SMILES: NC(=O)c1ncn([C@@H]2C[C@H](COP(=O)(O)O)[C@@H](O)[C@H]2O)c1N [ICAPP]
